Patent publication US4288597A, “1,2-Diacylamino-1,2-di(4-pyridyl)ethanes and process for producing thereof” (Laboratorios Made, S.A., priority 1979, dated 1981)

What was measured:
[1] = Acute toxicity, lethal dose 50 (Litchfield-Wilcoxon), intraperitoneal; conditions: mouse, in vivo, ip, mice, deaths recorded three days after administration
Experimental: (§1) The object of the studies carried out on all the products was to calculate the acute toxicity, expressed in the form of lethal dose 50, and to evaluate the analgesic effect by administering the drugs orally and intraperitoneally.
Tests were carried out on I.C.R. Swiss albino mice of both sexes weighing between 20 and 35 grams. The products were administered intraperitoneally,recording the number of dead animals three days after administration of the drugs. The statistical method used for the calculation of lethal dose 50 was the Litchfield-Wilcoxon method.

[2] = Analgesic effect by intraperitoneal route (Siegmund technique modified by Koster, 1% acetic acid irritant); type: in vivo; conditions: products 1 mg/kg, reference 25 mg/kg, 30 minutes after administration, dextropropoxyphene = 1
Experimental: There is a series of 19 products, with analgesic activity, the effects whereof were tested using dextropropoxyphene as a reference drug.
as §1
1. ACTIVITY BY INTRAPERITONEAL ROUTE
(§2) The analgesic effect was evaluated according to the technique of Siegmund et al. (Proc. Soc. Exp. Biol. Med. 95, 729, 1957) modified by Koster et al. (Fed. Proc. 18, 412, 1957), a chemical analgesia test which uses 1% acetic acid as an irritant. The drugs under study were administered at the dose of 1 mg/kg and the reference drug at 25 mg/kg. The evaluation was made 30 minutes after the administrations. The results are given in Table B-1, expressing the results in the form of relative potency (F), giving dextropropoxyphene value 1. [formula]

[3] = Analgesic effect by oral route (Siegmund technique modified by Koster, 1% acetic acid irritant); type: in vivo; conditions: products 5 mg/kg, dextropropoxyphene = 1
Experimental: as §1, §2
2. ACTIVITY BY ORAL ROUTE
The foregoing procedure was used, with the difference that the dose of the products under study was 5 mg/kg.

| Structure (SMILES) | LD50 at 72 h [1] [mg/kg] | Analgesic effect by intraperitoneal route, relative potency F [2] | Analgesic effect by oral route, relative potency F [3] |
| --- | --- | --- | --- |
| CCC(=O)O[C@](Cc1ccccc1)(c1ccccc1)[C@H](C)CN(C)C [Dextropropoxyphene, dextropropoxyphene, reference compound] | 140 | – | – |
| CC(=O)NC(c1ccncc1)C(NC(C)=O)c1ccncc1 (stereo not shown) [Example 1] | 1120 | 1.01 | 0.85 |
| CCCC(CCC)C(=O)NC(c1ccncc1)C(NC(=O)C(CCC)CCC)c1ccncc1 (stereo not shown) [Example 2] | > 1600 | 1.43 | 0.95 |
| O=C(NC(c1ccncc1)C(NC(=O)c1ccccc1)c1ccncc1)c1ccccc1 (stereo not shown) [Example 3] | > 1300 | 1.21 | 1.35 |
| Cc1ccc(C(=O)NC(c2ccncc2)C(NC(=O)c2ccc(C)cc2)c2ccncc2)cc1 (stereo not shown) [Example 4] | > 1660 | 1.04 | 1.11 |
| Cc1cccc(C(=O)NC(c2ccncc2)C(NC(=O)c2cccc(C)c2)c2ccncc2)c1 (stereo not shown) [Example 5] | > 1400 | 1.85 | 1.64 |
| Cc1ccccc1C(=O)NC(c1ccncc1)C(NC(=O)c1ccccc1C)c1ccncc1 (stereo not shown) [Example 6] | > 1600 | 1.09 | 1.67 |
| Cc1cc(C)cc(C(=O)NC(c2ccncc2)C(NC(=O)c2cc(C)cc(C)c2)c2ccncc2)c1 (stereo not shown) [Example 7] | > 1600 | 1.53 | 1.17 |
| O=C(NC(c1ccncc1)C(NC(=O)c1ccc(Cl)cc1)c1ccncc1)c1ccc(Cl)cc1 (stereo not shown) [Example 8] | > 1600 | 1.58 | 1.29 |
| O=C(NC(c1ccncc1)C(NC(=O)c1cccc(Cl)c1)c1ccncc1)c1cccc(Cl)c1 (stereo not shown) [Example 9] | > 1300 | 1.08 | 1.05 |
| O=C(NC(c1ccncc1)C(NC(=O)c1ccccc1Cl)c1ccncc1)c1ccccc1Cl (stereo not shown) [Example 10] | 1060 | 1.37 | 1.34 |
| O=C(NC(c1ccncc1)C(NC(=O)c1cc(Cl)cc(Cl)c1)c1ccncc1)c1cc(Cl)cc(Cl)c1 (stereo not shown) [Example 11] | > 1200 | 0.84 | 1.22 |
| O=C(NC(c1ccncc1)C(NC(=O)c1ccc(F)cc1)c1ccncc1)c1ccc(F)cc1 (stereo not shown) [Example 12] | 1110 | 1.17 | 0.81 |
| O=C(NC(c1ccncc1)C(NC(=O)c1ccc(C(F)(F)F)cc1)c1ccncc1)c1ccc(C(F)(F)F)cc1 (stereo not shown) [Example 13] | > 1200 | 1.38 | 1.19 |
| COc1ccc(C(=O)NC(c2ccncc2)C(NC(=O)c2ccc(OC)cc2)c2ccncc2)cc1 (stereo not shown) [Example 14] | > 1600 | 1.09 | 1.23 |
| CS(=O)(=O)c1ccc(C(=O)NC(c2ccncc2)C(NC(=O)c2ccc(S(C)(=O)=O)cc2)c2ccncc2)cc1 (stereo not shown) [Example 15] | > 2000 | 1.43 | 1.05 |
| O=C(NC(c1ccncc1)C(NC(=O)c1ccc([N+](=O)[O-])cc1)c1ccncc1)c1ccc([N+](=O)[O-])cc1 (stereo not shown) [Example 16] | > 1600 | 1.38 | 1.25 |
| CC(C)(C)c1ccc(C(=O)NC(c2ccncc2)C(NC(=O)c2ccc(C(C)(C)C)cc2)c2ccncc2)cc1 (stereo not shown) [Example 17] | > 1600 | 1.11 | 1.17 |
| O=C(Cc1ccccc1)NC(c1ccncc1)C(NC(=O)Cc1ccccc1)c1ccncc1 (stereo not shown) [Example 18] | 1540 | 0.96 | 2.13 |
| O=C(NC(c1ccncc1)C(NC(=O)c1ccc(-c2ccccc2)cc1)c1ccncc1)c1ccc(-c2ccccc2)cc1 (stereo not shown) [Example 19] | > 1600 | 1.08 | 1.13 |
